Columns and labels:
Format in all cases: biochemical
KRAS G13D = KRAS G13D (Homo sapiens (Human), UniProt P01116+P62937, G13D); test: Ras-Raf disruption/FRET/MOA assay, KRAS G13D
Procedure, shortened: (§1)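 TR-FRET of nucleotide-loaded (GMP-PNP) His6-Ras (12.5 nM) binding to GST-BRAF RBD (50 nM) with Cyclophilin A (25 μM) in HEPES pH 7.3 buffer; 10-point 3-fold compound series from 30 μM, 3 h at 25 °C, then anti-His Eu/anti-GST APC 1.5 h. IC50 from decreased FRET ratio vs DMSO.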

KRAS Q61H = KRAS Q61H (Homo sapiens (Human), UniProt P01116+P62937, Q61H); test: Ras-Raf disruption/FRET/MOA assay, KRAS Q61H
Text: (§2) Disruption of B-Raf Ras-Binding Domain (BRAF^RBD) Interaction with K-Ras by Compounds of the Invention (Also Called a FRET Assay or an MOA Assay)
(§3) Note—The following protocol describes a procedure for monitoring disruption of K-Ras G12C (GMP-PNP) binding to BRAF^RBD by a compound of the invention. This protocol may also be executed substituting other Ras proteins or nucleotides, such as K-Ras G12D and K-Ras G13D.
(§4) The purpose of this biochemical assay was to measure the ability of test compounds to facilitate ternary complex formation between a nucleotide-loaded K-Ras isoform and Cyclophilin A; the resulting ternary complex disrupts binding to a BRAF^RBD construct, inhibiting K-Ras signaling through a RAF effector. Data is reported as IC50 values.
(§5) In assay buffer containing 25 mM HEPES pH 7.3, 0.002% Tween20, 0.1% BSA, 100 mM NaCl and 5 mM MgCl2, tagless Cyclophilin A, His6-K-Ras-GMPPNP, and GST-BRAF^RBD were combined in a 384-well assay plate at final concentrations of 25 μM, 12.5 nM, and 50 nM, respectively. Compound was present in plate wells as a 10-point 3-fold dilution series starting at a final concentration of 30 μM. After incubation at 25° C. for 3 hours, a mixture of anti-His Eu—W1024 and anti-GST allophycocyanin was then added to assay sample wells at final concentrations of 10 nM and 50 nM, respectively, and the reaction incubated for an additional 1.5 hours. […] Compounds that facilitate disruption of a K-Ras: RAF complex were identified as those eliciting a decrease in the TR-FRET ratio relative to DMSO control wells.

NRAS Q61K = NRAS Q61K (Homo sapiens (Human), UniProt P01111+P62937, Q61K); test: Ras-Raf disruption/FRET/MOA assay, NRAS Q61K
Text: as §2, §3, §4, §5

KRAS G12D = KRAS G12D (Homo sapiens (Human), UniProt P01116+P62937, G12D); test: Ras-Raf disruption/FRET/MOA assay, KRAS G12D
Procedure, shortened: as §1

NRAS Q61R = NRAS Q61R (Homo sapiens (Human), UniProt P01111+P62937, Q61R); test: Ras-Raf disruption/FRET/MOA assay, NRAS Q61R
Text: as §2, §3, §4, §5

KRAS G13C = KRAS G13C (Homo sapiens (Human), UniProt P01116+P62937, G13C); test: Ras-Raf disruption/FRET/MOA assay, KRAS G13C
Procedure, shortened: as §1

NRAS WT = NRAS WT (Homo sapiens (Human), UniProt P01111+P62937); test: Ras-Raf disruption/FRET/MOA assay, NRAS WT
Text: as §2, §3, §4, §5

KRAS G12C = KRAS G12C (Homo sapiens (Human), UniProt P01116+P62937, G12C); test: Ras-Raf disruption/FRET/MOA assay, KRAS G12C
Procedure, shortened: as §1

KRAS G12S = KRAS G12S (Homo sapiens (Human), UniProt P01116+P62937, G12S); test: Ras-Raf disruption/FRET/MOA assay, KRAS G12S
Procedure, shortened: as §1

KRAS WT = KRAS WT (Homo sapiens (Human), UniProt P01116+P62937); test: Ras-Raf disruption/FRET/MOA assay, KRAS WT
Procedure, shortened: as §1

NRAS G12C = NRAS G12C (Homo sapiens (Human), UniProt P01111+P62937, G12C); test: Ras-Raf disruption/FRET/MOA assay, NRAS G12C
Procedure, shortened: as §1

KRAS G12V = KRAS G12V (Homo sapiens (Human), UniProt P01116+P62937, G12V); test: Ras-Raf disruption/FRET/MOA assay, KRAS G12V
Procedure, shortened: as §1

Chain of NRAS Q61K (P01111 whole entry Q61K): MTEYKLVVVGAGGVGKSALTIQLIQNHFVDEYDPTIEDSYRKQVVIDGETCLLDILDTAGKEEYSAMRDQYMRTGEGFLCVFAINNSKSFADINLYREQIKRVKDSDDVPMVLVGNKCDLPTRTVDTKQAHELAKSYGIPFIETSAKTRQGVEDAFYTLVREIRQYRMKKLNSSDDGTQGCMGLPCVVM
Chain of NRAS Q61K (P62937 whole entry): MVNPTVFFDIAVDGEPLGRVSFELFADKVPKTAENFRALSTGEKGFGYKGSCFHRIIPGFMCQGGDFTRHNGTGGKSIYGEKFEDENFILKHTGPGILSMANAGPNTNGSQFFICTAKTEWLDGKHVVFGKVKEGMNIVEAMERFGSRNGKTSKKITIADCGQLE
Chain of KRAS G12D (P01116 other isoform, or with tags, fused parts or gaps G12D): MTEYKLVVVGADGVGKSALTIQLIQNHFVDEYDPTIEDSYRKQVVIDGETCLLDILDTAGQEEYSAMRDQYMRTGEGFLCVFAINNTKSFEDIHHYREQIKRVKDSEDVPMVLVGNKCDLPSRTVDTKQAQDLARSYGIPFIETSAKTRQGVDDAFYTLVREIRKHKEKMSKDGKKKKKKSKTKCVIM
Chain of KRAS G12D (P62937 whole entry): as the sequence (P62937 whole entry) above
Chain of NRAS Q61R (P01111 whole entry Q61R): as the sequence (P01111 whole entry Q61K) above, with K61R counted along it
Chain of NRAS Q61R (P62937 whole entry): as the sequence (P62937 whole entry) above
Chain of NRAS G12C (P01111 whole entry G12C): as the sequence (P01111 whole entry Q61K) above, with G12C, K61Q counted along it
Chain of NRAS G12C (P62937 whole entry): as the sequence (P62937 whole entry) above
Chain of KRAS WT (P01116 other isoform, or with tags, fused parts or gaps): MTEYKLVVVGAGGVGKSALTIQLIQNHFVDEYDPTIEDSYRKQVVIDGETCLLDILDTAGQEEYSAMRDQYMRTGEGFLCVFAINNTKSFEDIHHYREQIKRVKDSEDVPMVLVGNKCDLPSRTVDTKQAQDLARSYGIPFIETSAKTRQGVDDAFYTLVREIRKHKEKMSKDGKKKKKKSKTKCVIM
Chain of KRAS WT (P62937 whole entry): as the sequence (P62937 whole entry) above
Chain of KRAS G12S (P01116 other isoform, or with tags, fused parts or gaps G12S): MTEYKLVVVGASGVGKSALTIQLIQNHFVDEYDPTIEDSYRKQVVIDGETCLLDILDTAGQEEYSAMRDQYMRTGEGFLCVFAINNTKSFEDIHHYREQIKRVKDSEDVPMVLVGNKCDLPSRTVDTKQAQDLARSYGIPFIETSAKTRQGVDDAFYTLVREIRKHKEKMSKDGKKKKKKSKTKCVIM
Chain of KRAS G12S (P62937 whole entry): as the sequence (P62937 whole entry) above
Chain of KRAS G12C (P01116-2 other isoform, or with tags, fused parts or gaps G12C): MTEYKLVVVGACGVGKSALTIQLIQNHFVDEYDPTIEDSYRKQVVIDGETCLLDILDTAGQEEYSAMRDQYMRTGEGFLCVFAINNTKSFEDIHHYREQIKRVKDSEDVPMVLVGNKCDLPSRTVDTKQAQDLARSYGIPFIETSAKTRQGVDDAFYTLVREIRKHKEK
Chain of KRAS G12C (P62937 whole entry): as the sequence (P62937 whole entry) above
Chain of KRAS Q61H (P01116 other isoform, or with tags, fused parts or gaps Q61H): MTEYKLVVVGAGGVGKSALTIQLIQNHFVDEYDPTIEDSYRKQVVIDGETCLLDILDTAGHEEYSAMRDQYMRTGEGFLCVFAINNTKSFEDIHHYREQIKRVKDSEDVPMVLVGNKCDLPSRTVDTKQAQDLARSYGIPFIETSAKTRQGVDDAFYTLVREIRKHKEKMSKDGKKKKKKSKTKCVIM
Chain of KRAS Q61H (P62937 whole entry, the tested form may be a part): as the sequence (P62937 whole entry) above
Chain of KRAS G13D (P01116 other isoform, or with tags, fused parts or gaps G13D): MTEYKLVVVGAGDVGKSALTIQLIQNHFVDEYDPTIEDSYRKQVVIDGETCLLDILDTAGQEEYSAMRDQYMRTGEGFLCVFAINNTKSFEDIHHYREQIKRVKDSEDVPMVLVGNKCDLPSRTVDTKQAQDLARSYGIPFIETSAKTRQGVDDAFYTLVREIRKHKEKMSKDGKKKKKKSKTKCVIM
Chain of KRAS G13D (P62937 whole entry): as the sequence (P62937 whole entry) above
Chain of NRAS WT (P01111 whole entry): as the sequence (P01111 whole entry Q61K) above, with K61Q counted along it
Chain of NRAS WT (P62937 whole entry): as the sequence (P62937 whole entry) above
Chain of KRAS G13C (P01116 other isoform, or with tags, fused parts or gaps G13C): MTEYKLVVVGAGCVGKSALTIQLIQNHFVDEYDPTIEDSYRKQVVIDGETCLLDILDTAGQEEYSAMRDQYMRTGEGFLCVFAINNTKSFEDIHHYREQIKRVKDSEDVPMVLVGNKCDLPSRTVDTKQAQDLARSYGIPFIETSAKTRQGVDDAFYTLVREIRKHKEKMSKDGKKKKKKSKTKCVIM
Chain of KRAS G13C (P62937 whole entry): as the sequence (P62937 whole entry) above
Chain of KRAS G12V (P01116 other isoform, or with tags, fused parts or gaps G12V): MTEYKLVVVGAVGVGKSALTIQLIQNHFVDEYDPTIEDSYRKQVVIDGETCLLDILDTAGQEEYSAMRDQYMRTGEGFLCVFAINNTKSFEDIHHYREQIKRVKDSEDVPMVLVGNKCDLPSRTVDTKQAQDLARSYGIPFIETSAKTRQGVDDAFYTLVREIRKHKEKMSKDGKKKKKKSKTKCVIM
Chain of KRAS G12V (P62937 whole entry): as the sequence (P62937 whole entry) above

SMILES	IC50 (KRAS G13D) [nM]	IC50 (KRAS Q61H) [nM]	IC50 (NRAS Q61K) [nM]	IC50 (KRAS G12D) [nM]	IC50 (NRAS Q61R) [nM]	IC50 (KRAS G13C) [nM]	IC50 (NRAS WT) [nM]	IC50 (KRAS G12C) [nM]	IC50 (KRAS G12S) [nM]	IC50 (KRAS WT) [nM]	IC50 (NRAS G12C) [nM]	IC50 (KRAS G12V) [nM]
CCn1c(-c2cccnc2[C@H](C)OC)c2c3cc(ccc31)-c1cc(O)cc(c1)C[C@H](NC(=O)[C@H](C(C)C)N(C)C(=O)[C@]13C[C@H]1CCN3C(=O)[C@H]1CN1)C(=O)N1CCC[C@H](N1)C(=O)OCC(C)(C)C2 [Example 244]	100 to 1000	10 to 100	1000 to 10000	100 to 1000	100 to 1000	100 to 1000	100 to 1000	10 to 100	100 to 1000	100 to 1000	10 to 100	100 to 1000
CCn1c(-c2cccnc2[C@H](C)OC)c2c3cc(ccc31)-c1cc(O)cc(c1)C[C@H](NC(=O)[C@H](C(C)C)N(C)C(=O)[C@@H]1CO[C@H](C)CN1C(=O)[C@H]1CN1)C(=O)N1CCC[C@H](N1)C(=O)OCC(C)(C)C2 [Example 248]	10 to 100	10 to 100	100 to 1000	10 to 100	100 to 1000	10 to 100	10 to 100	10 to 100	10 to 100	10 to 100	10 to 100	10 to 100
CCn1c(-c2cccnc2[C@H](C)OC)c2c3cc(ccc31)-c1cc(O)cc(c1)C[C@H](NC(=O)[C@H](C(C)C)N(C)C(=O)[C@@H]1CO[C@H](C)CN1C(=O)[C@@H]1CN1)C(=O)N1CCC[C@H](N1)C(=O)OCC(C)(C)C2 [Example 249]	10 to 100	< 10	10 to 100	10 to 100	10 to 100	10 to 100	10 to 100	< 10	10 to 100	10 to 100	< 10	10 to 100
